Experimental data: patent US8569270B2, “Diphenyl sulfide derivatives and medicines containing same as active ingredient” (Kyorin Pharmaceutical Co., Ltd., priority 2009, dated 2013)

How the values were obtained:
Human S1P3 receptor = molecular target: T1, Human S1P3 receptor (Homo sapiens, UniProt Q99500); experiment: Suppression of S1P-induced cellular calcium mobilization in human S1P3 receptor-expression CHO cells (Schild plot); format: cell-based; conditions: Schild plot of S1P EC50 shift; test compound 125 nM, 1.25 μM, 12.5 μM; hS1P3 CHO cells; read-out: S1P3 dissociation constant Kd value
T1 construct: expressed in transfected cells; host or cells: CHO cells (Geneticin-selected)
T1 sequence (Q99500 whole entry): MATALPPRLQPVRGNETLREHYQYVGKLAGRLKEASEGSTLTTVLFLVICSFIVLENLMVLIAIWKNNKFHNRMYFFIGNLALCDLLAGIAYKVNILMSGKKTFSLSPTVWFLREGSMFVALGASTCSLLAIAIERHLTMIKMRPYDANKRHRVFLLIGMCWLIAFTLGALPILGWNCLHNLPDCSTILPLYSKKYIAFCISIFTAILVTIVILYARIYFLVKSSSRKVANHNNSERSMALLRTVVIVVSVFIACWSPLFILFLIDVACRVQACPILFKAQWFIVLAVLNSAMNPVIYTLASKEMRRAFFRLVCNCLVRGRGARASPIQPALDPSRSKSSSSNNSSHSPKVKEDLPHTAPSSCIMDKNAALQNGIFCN
Procedure: Suppression Effect of Test Compound Against Cellular Calcium Mobilization of Human S1P3 Receptor-Expression Cell by S1P (Sphingosine 1-Phosphoric Acid)
Human S1P3 receptor-expression CHO cells were subcultured in a Ham's F-12 culture medium containing 10% fetal bovine serum, and 300 μg/mL of Geneticin. The human S1P3 receptor-expression CHO cells were subjected to 0.25% trypsinization, then recovered from the dish, and floated in a Ham's F-12 culture medium containing 10% fetal bovine serum, and 300 μg/mL of Geneticin. After that, the human S1P3 receptor-expression CHO cells were disseminated into a 96-well black clear bottom plate (BD Falcon Biocoat) so that 7×10^4/100 μL/well of the human S1P3 receptor-expression CHO cells were disseminated. And then, the human S1P3 receptor-expression CHO cells were cultivated for one night at 37° C. under 5% CO2. The next day, the wells were washed 3 times with 100 μL of PBS containing 0.1% fatty acid-free bovine serum albumin (BSA). The culture medium was exchanged with a Ham's F-12 culture medium containing 0.1% BSA, and then starved of serum for 6 hours in an CO2 incubator at 37° C.
The culture medium was thrown away after the 6 hours. Then, 50 μL/well of a Fluo3 loading buffer was added, and the cultures were cultivated for further 1 hour. The Fluo3 loading buffer was prepared as follows. First, equal amounts of Fluo3-AM (Dojindo) and pluronic F-127 (20% DMSO solution, invitrogen) were mixed. Next, the mixture of Fluo3-AM and pluronic F-127 was added to a Hanks-HEPES buffer (balanced salt solution containing 20 mM HEPES (pH, 7.4), 0.1% BSA (fatty acid-free), and 2.5 mM probenecid) to form a Fluo3 loading buffer having a final Fluo3-AM concentration of 4
After incubating for 1 hour, the cultures were washed 3 times with 100 μL of the Hanks-HEPES buffer. Then, 100 μL of the same buffer in which a test compound (125 nM, 1.25 μM, 12.5 μM) or DMSO had been dissolved was added to the cultures, and then incubated for 30 minutes at 37° C. in a microplate spectrophotofluorometer (FLEX Station) (Molecular Device Co., Ltd.). Then, 25 μL of S1P prepared at 5 times the concentration of the final concentration by serial dilution (final concentration of 0.1 nM, 1 nM, 10 nM, 100 nM, and 1 μM) was added, and the fluorescence based on the Fluo3 due to calcium mobilization was detected and measured at an excitation wavelength of 485 nm and a detection wavelength of 525 nm using the same apparatus. Based on the measurement data, the increase in fluorescence was calculated by subtracting the minimum fluorescence intensity from the maximum fluorescence intensity. The measured increase in fluorescence was used to perform a curve approximation of the relationship between the S1P concentration and the increase in fluorescence using PRISM 4 software (GraphPad). Based on the results, the EC50 value of the compound-untreated and the EC50 value of the compound-treated at each concentration were calculated. Schild Plot analysis was performed based on these values to determine dissociation constant Kd value. In Table 1, 1,000 nmol/L>Kd value≧100 nmol/L is indicated as “+,” 100 nmol/L>Kd value≧10 nmol/L is indicated as “++,” 10 nmol/L>Kd value≧1 nmol/L is indicated as “+++,” and 1 nmol/L>Kd value is indicated as “++++.”

S1P1 receptor [1] = molecular target: T2, S1P1 receptor (Homo sapiens, UniProt P21453); experiment: Antagonistic action on the S1P1 receptor using the method of Experiment Example 1; format: cell-based; design: expressed in transfected cells
T2 sequence (P21453 whole entry): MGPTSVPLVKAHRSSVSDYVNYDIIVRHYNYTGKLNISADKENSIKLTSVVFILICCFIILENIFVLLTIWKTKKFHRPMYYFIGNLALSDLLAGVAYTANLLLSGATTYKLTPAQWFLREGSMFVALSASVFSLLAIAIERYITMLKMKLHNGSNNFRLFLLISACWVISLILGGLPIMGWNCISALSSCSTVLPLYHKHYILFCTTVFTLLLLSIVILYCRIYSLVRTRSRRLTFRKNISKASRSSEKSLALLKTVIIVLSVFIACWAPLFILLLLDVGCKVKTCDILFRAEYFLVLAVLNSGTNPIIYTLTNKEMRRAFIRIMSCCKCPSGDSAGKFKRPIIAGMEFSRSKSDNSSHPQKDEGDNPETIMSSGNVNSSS

S1P1 receptor [2] = molecular target: T2, S1P1 receptor; experiment: Intracellular calcium mobilization derivative (agonist) test in human S1P1 receptor-expression CHO cells; format: cell-based; design: expressed in transfected cells; host or cells: CHO cells (Geneticin-selected); conditions: agonist mode, read-out: EC50 value, intracellular calcium mobilization derivative action
Procedure: Intracellular Calcium Mobilization Derivative Test of Test Compound Against Human S1P1 Receptor-Expression Cell
Human S1P receptor-expression CHO cells (hS1P1 receptor-expression CHO cells, hS1P3 receptor-expression CHO cells, and hS1P4 receptor-expression CHO cells) subcultured in a Ham's F-12 culture medium containing 10% fetal bovine serum, and 200 μg/mL of Geneticin were disseminated into a 96-well black clear bottom plate (coaster) so that 4×10^4 cells/well of the human S1P receptor-expression CHO cells were disseminated. The human S1P3 receptor-expression CHO cells were then cultivated for one night at 37° C. under 5% CO2. A Calcium Screening Kit reagent (Dojindo) was added as a Ca^2+ binding fluorescence indicator, and then the cultures were cultivated for 60 minutes at 37° C. under 5% CO2. After cultivation, the fluoroesence intensity was measured at an excitation wavelength of 485 nm and a detection wavelength of 525 nm using a microplate spectrophotofluorometer (FLEX Station) (Molecular Device Co., Ltd.). S1P prepared in a culture medium so that the concentration would be 10 times that of the final concentration, or a test compound (final DMSO concentration 0.1%) was added 18 seconds after the start of the fluorescence measurement, and the fluorescence intensity was continuously measured every 1.5 seconds until 100 seconds after the addition. […]

IL-1β production = experiment: LPS induced sepsis model, IL-1β in tissue by ELISA; format: in vivo, C57BL/6J mouse; conditions: 10 mg/kg i.v. twice (15 min before and 2 h after LPS), 18 h after LPS
Procedure: The experiment was carried out with reference to the method described in Non-Patent Literature 5 (F. Nissen et al., Nature, 452, 654 (2008)). A solution of 1 mg/ml LPS (lipopolysaccharide) in physiological saline was intraperitoneally administered (10 ml/kg) to a C57BL/6J mouse (Charles River, male, 7 to 8 weeks). The test compound in an amount of 10 mg/kg was intravenously administered twice, 15 minutes before LPS administration and 2 hours after LPS administration. The mouse was dissected 18 hours after LPS administration, and the mesenteric lymph nodes and lungs were excised. The mesenteric lymph nodes were dissolved in 200 μl and the lungs in 1 ml of a dissolving buffer (30 mM Tris (pH7.4), 150 mM NaCl, 0.1% TritonX-100, 2 mM CaCl2, and 2 mM MgCl2). Non-dissolved matter was removed by centrifugal separation. The IL-1β in the tissue solutions was measured using an IL-1β ELISA Kit (Thermo Co., Ltd.). In Table 2, compounds having a suppression rate of 50% or more are indicated as “+++,” compounds having a suppression rate of 50%>suppression rate≧30% are indicated as “++,” and compounds having a suppression rate of 30%>suppression rate 20% are indicated as “+.”
The suppression rate was calculated using the following calculation equation. a=(1−X/Y)×100 [Equation 1] X: IL-1β PRODUCTION AMOUNT WHEN, 10 mg/kg OF TEST COMPOUND WAS ADMINISTERED TO RESPECTIVE TISSUE Y: IL-1β PRODUCTION AMOUNT WHEN TEST COMPOUND WAS NOT ADMINISTERED TO RESPECTIVE TISSUE a: SUPPRESSION RATE (%)

[3] = system: Cecal ligation and puncture sepsis model; experiment: Cecal ligation and puncture sepsis model, survival; format: in vivo, Long-Evans rats; conditions: 0.1 mg/kg/hr continuous i.v. from 2 hours after CLP, rat
Procedure: This model is widely used as a model for polymicrobial abdominal sepsis caused by leakage of intestinal bacteria. The experiment was carried out with reference to the method described in Non-Patent Literature 9 (D. Rittirsch et al., Nature Protocols, 4, 31 (2009)). Long-Evans rats were used (Nihon SLC, male 9 weeks). The abdominal portion of the rats was cut open under isoflurane anesthesia, and the cecum was removed. The cecum was ligated with silk thread, and 3 holes were opened in the tip portion of the cecum using an 18 G syringe needle. After the treatment, the cecum was returned to the body, and the wound was sutured. The rats were then returned to their cages, and observed for 4 days to determine the survival rate. The test compound (0.1 mg/kg/hr) was continuously administered from a cannula stuck in the femoral vein from 2 hours after the CLP treatment.

Compound	Kd (Human S1P3 receptor)	Kd (S1P1 receptor [1])	EC50 (S1P1 receptor [2])	Suppression Rate for Lung (IL-1β production; mouse lung)	Suppression Rate for Mesenteric Lymph Nodes (IL-1β production; mouse mesenteric lymph nodes)	survival rate after 4 days ([3]; medium group 40%)	survival curve compared with the medium administration group ([3]; observed 4 days)
CCC[C@](N)(CCc1ccc(Sc2cc(C(F)(F)F)ccc2O)cc1Cl)COP(=O)(O)O [Example 13]	< 1 nM	> 100 µM	> 10 µM	+++ (suppression rate of 50% or more)	+++ (suppression rate of 50% or more)		
C[C@](N)(CCc1ccc(Sc2cc(C#N)ccc2O)cc1Cl)COP(=O)(O)O [Example 15, (S)-2-amino-4-[2-chloro-4-(5-cyano-2-hydroxyphenylthio)phenyl]-2-methylbutylphosphoric acid monoester]	100 to 1000 nM	> 100 µM	> 10 µM				
CCC[C@](N)(CCc1ccc(Sc2cc(-c3ccccc3)ccc2O)cc1Cl)COP(=O)(O)O [Example 22]	< 1 nM					70%	survival curve that had shifted to the right
